By IC50 is commonly meant the concentration at which inhibition is half-maximal. Lower therefore signals greater potency.

The assay deals with T1, His-His-USP7 (aa208-560, |C315A|) (Homo sapiens, UniProt Q93009, C315A).
T1 construct: His-His-USP7 (aa208-560, |C315A|); His-His (N)
T1 sequence (Q93009 208-560 C315A): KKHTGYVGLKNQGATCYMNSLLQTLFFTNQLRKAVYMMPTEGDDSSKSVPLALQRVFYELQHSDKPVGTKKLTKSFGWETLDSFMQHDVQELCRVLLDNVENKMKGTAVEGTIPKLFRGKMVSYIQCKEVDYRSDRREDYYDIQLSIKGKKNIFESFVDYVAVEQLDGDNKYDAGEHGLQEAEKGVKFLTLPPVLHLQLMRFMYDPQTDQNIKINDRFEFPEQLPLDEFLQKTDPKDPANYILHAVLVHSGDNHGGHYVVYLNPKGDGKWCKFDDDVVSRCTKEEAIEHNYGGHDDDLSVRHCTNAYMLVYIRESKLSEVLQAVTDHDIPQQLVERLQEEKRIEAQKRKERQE
The assay is described as follows: Evaluation of the inhibition of USP7 by the Fluorescence Intensity (FLINT) readings. The assay is classed as biochemical. The following applies: 0.25 nM His-His-USP7, compound incubated 60 minutes at 30° C., 500 nM Ubiquitin-Rhodamine-110 substrate; 50% reduction in kinetic rate. The protocol: USP7 activity was measured using Rhodamine-110 c-terminal labelled Ubiquitin as a substrate (UbiQ Bio). Incubation with USP7 results in the release of Rhodamine-110 leading to an increase in fluorescence which can be used in the continuous measurement of USP7 activity.
The USP7 reactions were performed in a 50 μL volume, in 384 well black solid low binding plates (Corning #3575). The reaction buffer consisted of 100 mM Bicine pH 8.0, 0.01% TritonX100, 1 mM TCEP, and 10% DMSO.
0.25 nM His-His-USP7 (aa208-560, |C315A|) was incubated with compound (final concentration 10% DMSO) for 60 minutes at 30° C. The reaction was then initiated by the addition of 500 nM Ubiquitin-Rhodamme-110 substrate and the plate read every 3 minutes for 21 minutes to measure the release of Rhodamine-110. Fluorescence Intensity (FLINT) readings were measured using a […] plate reader (Ex.485 nm, Em.535 nm).
The inhibition of increasing doses of compound was expressed as a percentage reduction in kinetic rate compared to the kinetic rates established between ‘DMSO only’ and ‘total inhibition’ controls (no USP7). The inhibitory concentrations that gave a 50% reduction in kinetic rate (IC50) were determined, from 11-point dose response cures, in XL-Fit using a 4-Parameter Logistic Model 205 (Sigmoidal Dose-Response Model).
Consider `Nc1c(Sc2ccccc2)ncn(CC2(O)CCN(C(=O)[C@@H]3CCC(F)(F)C[C@H]3c3ccccc3)CC2)c1=O` [Example 30, 5-amino-3-({1-[(1R,2R)-4,4-difluoro-2-phenylcyclohexane-1-carbonyl]-4-hydroxypiperidin-4-yl}methyl)-6-(phenylsulfanyl)pyrimidin-4(3H)-one], for which the half-inhibitory concentration (IC50) was determined as 151 nM. The result for `Nc1c(Oc2ccc(CC(F)(F)F)cc2)ncn(CC2(O)CCN(C(=O)[C@@H]3CCC(F)(F)C[C@H]3c3ccccc3)CC2)c1=O` [Example 37, 5-amino-3-({1-[(1R,2R)-4,4-difluoro-2-phenylcyclohexane-1-carbonyl]-4-hydroxypiperidin-4-yl}methyl)-6-[4-(2,2,2-trifluoroethyl)phenoxyl]pyrimidin-4(3H)-one] reads 158 nM; that for `Nc1c(Oc2ccc(CCF)cc2)ncn(CC2(O)CCN(C(=O)[C@@H]3CCC(F)(F)C[C@H]3c3ccccc3)CC2)c1=O` [Example 39, 5-amino-3-({1-[(1R,2R)-4,4-difluoro-2-phenylcyclohexane-1-carbanyl]-4-hydroxypiperidin-4-yl}methyl)-6-[4-(2-fluoroethyl)phenoxy]pyrimidin4(3H)-one], 116 nM. Then `Nc1c(Oc2ccc(F)c(OC(F)(F)F)c2)ncn(CC2(O)CCN(C(=O)[C@@H]3CCC(F)(F)C[C@H]3c3ccccc3)CC2)c1=O` [Example 40, 5-amino-3-({1-[(1R,2R)-4,4-difluoro-2-phenylcyclohexane-1-carbonyl]-4-hydroxypiperidin-4-yl}methyl)-6-[4-fluoro-3-(trifluoromethoxy)phenoxy]pyrimidin-4(3H)-one], with 132 nM; and `Nc1c(Oc2cccc(C3CCCCN3)c2)ncn(CC2(O)CCN(C(=O)[C@@H]3CCC(F)(F)C[C@H]3c3ccccc3)CC2)c1=O` (stereo partly drawn) [Example 47, 5-amino-3-({1-[(1R,2R)-4,4-difluoro-2-phenylcyclohexane-1-carbonyl]-4-hydroxypiperidin-4-yl}methyl)-6-[3-(piperidin-2-yl)phenoxy]pyrimidin-4(3H)-one], with 8.81 nM.

`CC(C)(O)c1cccc(Oc2ncn(CC3(O)CCN(C(=O)[C@@H]4CCC(F)(F)C[C@H]4c4ccccc4)CC3)c(=O)c2N)c1` [Example 49, 5-amino-3-({1-[(1R,2R)-4,4-difluoro-2-phenylcyclohexane-1-carbonyl]-4-hydroxypiperidin-4-yl}methyl)-6-[3-(2-hydroxypropan-2yl)phenoxy]pyrimidin-4(3H)-one] displayed an IC50 of 138 nM. The result for `N#Cc1ccc(Oc2ncn(CC3(O)CCN(C(=O)[C@@H]4CCC(F)(F)C[C@H]4c4ccccc4)CC3)c(=O)c2N)cc1F` [Example 50, 4-{[5-amino-1-({1-[(1R,2R)-4,4-fluoro-2-phenylcyclohexane-1-carbonyl]-4-hydroxypiperidin-4-yl}methyl)-6-oxo-1,6-dihydropyrimidin-4-yl]oxy}-2-fluorobenzonitrile] reads 116 nM; that for `N#Cc1ccc(Oc2ncn(CC3(O)CCN(C(=O)[C@@H]4CCC(F)(F)C[C@H]4c4ccccc4)CC3)c(=O)c2N)cc1Cl` [Example 51, 4-{[5-amino-({1-[(1R,2R)-4,4difluoro-2-phenylcyclohexane-1-carbonyl]-4-hydroxypiperidin-4-yl}methyl)-6-oxo-1,6-dihydropyrimidin-4-yl]oxy}-2-chlorobenzonitrile], 120 nM. The result for `N#Cc1ccc(Oc2ncn(CC3(O)CCN(C(=O)[C@@H]4CCC(F)(F)C[C@H]4c4ccccc4)CC3)c(=O)c2N)c(Cl)c1` [Example 53, 4-{[5-amino-1-([1-[(1R,2R)-4,4-difluoro-2-phenylcyclohexane-1-carbanyl]-4-hydroxypiperidin-4-yl]methyl)-6-oxo-1,6-dihydropyrimidin-4-yl]oxy}-3-chlorobenzonitrile] reads 439 nM; that for `O=C([C@@H]1CCC(F)(F)C[C@H]1c1ccccc1)N1CCC(O)(Cn2cnc(Oc3ccc(F)cc3)c(NCc3ccccc3)c2=O)CC1` [Example 57, 5-(benzylamino)-3-({1-[(1R,2R)-4,4-difluoro-2-phenylcyclohexane-1-carbonyl]-4-hydroxypiperidin-4-yl}methyl)-6-(4-fluorophenoxy)pyrimidin-4(3H)-one], 611 nM; that for `NC(=O)c1ccc(Oc2ncn(CC3(O)CCN(C(=O)[C@@H]4CCC(F)(F)C[C@H]4c4ccccc4)CC3)c(=O)c2N)cc1` [Example 58, 4-{[5-amino-1-({1-[(1R,2R)-4,4-difluoro-2-phenylcyclohexane-1-carbonyl]-4-hydroxypiperidin-4-yl}methyl)-6-oxo-1,6-dihydropyrimidin-4-yl]oxy}benzamide], 67 nM. Then `CNCc1ccc(Oc2ncn(CC3(O)CCN(C(=O)[C@@H]4CCC(F)(F)C[C@H]4c4ccccc4)CC3)c(=O)c2N)cc1` [Example 60, 5-amino-3-({1-((1R,2R)-4,4-difluoro-2-phenylcyclohexane-1-carbony]-4-hydroxypiperidin-4-yl}methyl)-6-{4-[(methylamino)methyl]phenoxy}pyrimidin-4(3H)-one], with 6.5 nM. For `NC(=O)c1cccc(Oc2ncn(CC3(O)CCN(C(=O)[C@@H]4CCC(F)(F)C[C@H]4c4ccccc4)CC3)c(=O)c2N)c1` [Example 62, 3-{[5-amino-1-([1-[(1R,2R)-4,4-difluoro-2-phenylcyclohexane-1-carbonyl]-4-hydroxypiperidin-4-yl]methyl)-6-oxy-1,6-dihydropyrimidin-4-yl]oxy}benzamide], 100 nM corresponded to half-maximal inhibition (IC50). This IC50 lies about 15-fold higher than the previous one. In turn, `Nc1c(Oc2cccc(C(=O)O)c2)ncn(CC2(O)CCN(C(=O)[C@@H]3CCC(F)(F)C[C@H]3c3ccccc3)CC2)c1=O` [Example 63] displayed an IC50 of 1620 nM.

`NCc1ccc(Oc2ncn(CC3(O)CCN(C(=O)[C@@H]4CCC(F)(F)C[C@H]4c4ccccc4)CC3)c(=O)c2N)c(Cl)c1` [Example 69, 5-amino-6-[4-(aminomethyl)-2-chlorophenoxyl]-3-({1-[(1R,2R)-4,4-difluoro-2-phenylcyclohexane-1-carbonyl]-4-hydroxypiperidin04-yl}methyl)pyrimidin-4(3H)-one]: the IC50 worked out at 119 nM.

For `Nc1c(Oc2ccc(CNc3ccccc3)cc2)ncn(CC2(O)CCN(C(=O)[C@@H]3CCC(F)(F)C[C@H]3c3ccccc3)CC2)c1=O` [Example 70, 5-amino-6-[4-(anilinomethyl)phenoxy]-3-({1-[(1R,2R)-4,4-difluoro-2-phenylcyclohexane-1-carbonyl]-4-hydroxypiperidin-4-yl}methyl)pyrimidin-4(3H)-one], the IC50 is 134 nM. As to `Nc1c(Oc2ccc(CN(C=O)CC(F)(F)F)cc2)ncn(CC2(O)CCN(C(=O)[C@@H]3CCC(F)(F)C[C@H]3c3ccccc3)CC2)c1=O` [Example 74, N-[(4-{[5-amino-1-({1-[(1R,2R)-4,4-difluoro-2-phenylcyclohexane-1-carbonyl]-4-hydroxypiperidin-4-yl}methyl)-6-oxo-1,6-dihydropyrimidin-4-yl]oxy}phenyl)methyl]-N-(2,2,2-trifluoroethyl)formamide], half-maximal inhibition (IC50) was put at 227 nM. This IC50 is about 1.7-fold higher than that of the molecule before.

Take `Nc1c(Oc2ccc(F)cc2)ncn(C[C@]2(O)CCN(C(=O)[C@@H]3CCC(F)(F)C[C@H]3c3ccccc3)CC2(F)F)c1=O` [Example 79, 5-amino-3-({(4R)-1-[(1R,2R)-4,4-difluoro-2-phenylcyclohexane-1-carbonyl]-3,3-difluoro-4-hydroxypiperidin-4-yl}methyl)-6-(4-fluorophenoxy)pyrimidin-4(3H)-one]: it took 228 nM to reach half-maximal inhibition (IC50). Then `NC(=O)c1ccc(Oc2ncn(CC3(O)CCN(C(=O)[C@@H]4CCC(F)(F)C[C@H]4c4ccccc4)CC3)c(=O)c2N)cc1Cl` [Example 80, 4-{[5-amino-1-({1-[(1R,2R)-4,4-difluoro-2-phenylcyclohexane-1-carbonyl]-4-hydroxypiperidin-4-yl}methyl)-6-oxo-1,6-dihydropyrimidin-4-yl]oxy}-2-chlorobentamide], with 375 nM; and `NC(=O)c1ccc(Oc2ncn(CC3(O)CCN(C(=O)[C@@H]4CCC(F)(F)C[C@H]4c4ccccc4)CC3)c(=O)c2N)cc1F` [Example 81, 4-{[5-amino-1-({1-[(1R,2R)-4,4-difluoro-2-phenylcyclohexane-1-carbonyl]-4-hydroxypiperidin-4-yl}methyl)-6-oxo-1,6-dihydropyrimidin-4-yl]oxy}-2-fluorobenzamide], with 403 nM; and `Nc1c(Oc2cccnc2)ncn(CC2(O)CCN(C(=O)C3CCC(F)(F)CC3c3ccccc3)CC2)c1=O` (stereo not drawn) [Example 84, 5-amino-3-({1-[(1,2-trans)-4,4-difluoro-2-phenylcyclohexane-1-carbonyl]-4-hydroxypiperidin-4-yl}methyl)-6-[(pyridin-3-yl)oxy]pyrimidin-4(3H)-one], with 212 nM. The result for `Nc1c(Oc2cnc3cc[nH]c3c2)ncn(CC2(O)CCN(C(=O)[C@@H]3CCC(F)(F)C[C@H]3c3ccccc3)CC2)c1=O` [Example 106, 5-amino-3-([1-[(1R,2R)-4,4-difluoro-2-phenylcyclohexane-1-carbonyl]-4-hydroxypiperidin-4-yl]methyl)-6-[(1H-pyrrolo[3,2-b]pyridin-6-yl)oxy]pyrimidin-4(3H)-one] reads 152 nM.
